#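 GI50 = concentration required for 50% inhibition of growth. TGI: total growth inhibition.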
# Experiments:
# Test in all cases: DTP human tumour cell line panel, 384-well format
# [1] = tested on: SNB-75 CNS
# [2] = tested on: NCI-H226 lung
# [3] = tested on: K-562 leukemia
# [4] = tested on: ACHN renal
# [5] = tested on: SK-MEL-28 melanoma
# [6] = tested on: NCI-H23 lung
# [7] = tested on: CAKI-1 renal
# [8] = tested on: M14 melanoma
# [9] = tested on: UACC-257 melanoma
# [10] = tested on: UO-31 renal
# [11] = tested on: T-47D breast
# [12] = tested on: DU-145 prostate
# [13] = tested on: HCT-15 colon
# [14] = tested on: SN12C renal
# [15] = tested on: OVCAR-5 ovarian
# [16] = tested on: TK-10 renal
# [17] = tested on: MDA-MB-231 breast
# [18] = tested on: U251 glioblastoma
# [19] = tested on: UACC-62 melanoma
# [20] = tested on: 786-0 renal
# [21] = tested on: NCI-H322M lung
# [22] = tested on: A549 NSCLC
# [23] = tested on: HCC-2998 colon
# [24] = tested on: HCT-116 colon
# [25] = tested on: MALME-3M melanoma
# [26] = tested on: IGROV1 ovarian
# [27] = tested on: SK-MEL-2 melanoma
# [28] = tested on: CCRF-CEM leukemia
# [29] = tested on: PC-3 prostate
# [30] = tested on: SF-295 CNS
# [31] = tested on: OVCAR-3 ovarian
# [32] = tested on: SK-OV-3 ovarian
# [33] = tested on: OVCAR-4 ovarian
# [34] = tested on: MDA-MB-435 melanoma
# [35] = tested on: MDA-MB-468 breast
# [36] = tested on: HT29 colon
# [37] = tested on: RXF 393 renal
# [38] = tested on: HL-60(TB) leukemia
# [39] = tested on: SF-268 CNS
# [40] = tested on: HS 578T breast
# [41] = tested on: COLO 205 colon
# [42] = tested on: MOLT-4 leukemia
# [43] = tested on: NCI/ADR-RES ovarian
# [44] = tested on: HOP-92 NSCLC
# [45] = tested on: RPMI-8226 leukemia
# [46] = tested on: EKVX NSCLC
# [47] = tested on: NCI-H522 lung
# [48] = tested on: KM12 colon
# [49] = tested on: A498 renal
# [50] = tested on: SR leukemia
# [51] = tested on: NCI-H460 NSCLC
# [52] = tested on: HOP-62 NSCLC
# [53] = tested on: MCF7 breast
# [54] = tested on: SF-539 CNS
# [55] = tested on: BT-549 breast
# [56] = tested on: SK-MEL-5 melanoma
# [57] = tested on: LOX IMVI melanoma
# [58] = tested on: SW-620 colon
# [59] = tested on: SNB-19 CNS
structure (smiles),measurement,setting,value
N[C@H](CCC(=O)N[C@@H](Cc1c[nH]c2ccccc12)C(=O)O)C(=O)O,GI50,[1],> 100 µM
same,TGI,[1],> 100 µM
same,GI50,[2],> 100 µM
same,TGI,[2],> 100 µM
same,GI50,[3],> 100 µM
same,TGI,[3],> 100 µM
same,GI50,[4],> 100 µM
same,TGI,[4],> 100 µM
same,GI50,[5],> 100 µM
same,TGI,[5],> 100 µM
same,GI50,[6],> 100 µM
same,TGI,[6],> 100 µM
same,GI50,[7],> 100 µM
same,TGI,[7],> 100 µM
same,GI50,[8],> 100 µM
same,TGI,[8],> 100 µM
same,GI50,[9],> 100 µM
same,TGI,[9],> 100 µM
same,GI50,[10],> 100 µM
same,TGI,[10],> 100 µM
same,GI50,[11],> 100 µM
same,TGI,[11],> 100 µM
same,GI50,[12],> 100 µM
same,TGI,[12],> 100 µM
same,GI50,[13],> 100 µM
same,TGI,[13],> 100 µM
same,GI50,[14],> 100 µM
same,TGI,[14],> 100 µM
same,GI50,[15],> 100 µM
same,TGI,[15],> 100 µM
same,GI50,[16],> 100 µM
same,TGI,[16],> 100 µM
same,GI50,[17],> 100 µM
same,TGI,[17],> 100 µM
same,GI50,[18],> 100 µM
same,TGI,[18],> 100 µM
same,GI50,[19],> 100 µM
same,TGI,[19],> 100 µM
same,GI50,[20],> 100 µM
same,TGI,[20],> 100 µM
same,GI50,[21],> 100 µM
same,TGI,[21],> 100 µM
same,GI50,[22],> 100 µM
same,TGI,[22],> 100 µM
same,GI50,[23],> 100 µM
same,TGI,[23],> 100 µM
same,GI50,[24],> 100 µM
same,TGI,[24],> 100 µM
same,GI50,[25],> 100 µM
same,TGI,[25],> 100 µM
same,GI50,[26],> 100 µM
same,TGI,[26],> 100 µM
same,GI50,[27],> 100 µM
same,TGI,[27],> 100 µM
same,GI50,[28],> 100 µM
same,TGI,[28],> 100 µM
same,GI50,[29],> 100 µM
same,TGI,[29],> 100 µM
same,GI50,[30],> 100 µM
same,TGI,[30],> 100 µM
same,GI50,[31],> 100 µM
same,TGI,[31],> 100 µM
same,GI50,[32],> 100 µM
same,TGI,[32],> 100 µM
same,GI50,[33],> 100 µM
same,TGI,[33],> 100 µM
same,GI50,[34],> 100 µM
same,TGI,[34],> 100 µM
same,GI50,[35],> 100 µM
same,TGI,[35],> 100 µM
same,GI50,[36],> 100 µM
same,TGI,[36],> 100 µM
same,GI50,[37],> 100 µM
same,TGI,[37],> 100 µM
same,GI50,[38],> 100 µM
same,TGI,[38],> 100 µM
same,GI50,[39],> 100 µM
same,TGI,[39],> 100 µM
same,GI50,[40],> 100 µM
same,TGI,[40],> 100 µM
same,GI50,[41],> 100 µM
same,TGI,[41],> 100 µM
same,GI50,[42],> 100 µM
same,TGI,[42],> 100 µM
same,GI50,[43],> 100 µM
same,TGI,[43],> 100 µM
same,GI50,[44],> 100 µM
same,TGI,[44],> 100 µM
same,GI50,[45],> 100 µM
same,TGI,[45],> 100 µM
same,GI50,[46],> 100 µM
same,TGI,[46],> 100 µM
same,GI50,[47],> 100 µM
same,TGI,[47],> 100 µM
same,GI50,[48],> 100 µM
same,TGI,[48],> 100 µM
same,GI50,[49],> 100 µM
same,TGI,[49],> 100 µM
same,GI50,[50],> 100 µM
same,TGI,[50],> 100 µM
same,GI50,[51],> 100 µM
same,TGI,[51],> 100 µM
same,GI50,[52],> 100 µM
same,TGI,[52],> 100 µM
same,GI50,[53],> 100 µM
same,TGI,[53],> 100 µM
same,GI50,[54],> 100 µM
same,TGI,[54],> 100 µM
same,GI50,[55],> 100 µM
same,TGI,[55],> 100 µM
same,GI50,[56],> 100 µM
same,TGI,[56],> 100 µM
same,GI50,[57],> 100 µM
same,TGI,[57],> 100 µM
same,GI50,[58],> 100 µM
same,TGI,[58],> 100 µM
same,GI50,[59],> 100 µM
same,TGI,[59],> 100 µM
